The structures appear in SMILES notation. pKi: −log10 of the molar value.

1 molecule from patent US4837218A, “Alkylated bicycloalkaneamines for treatment of neurotoxic injury” (Washington University, priority 1987, dated 1989) can be followed below.

For assay [1], the system named is NMA (200 μM) neurotoxicity in chick embryo retina. Put plainly: NMDA/KA Antagonist Assay: prevention of NMA neurotoxicity in chick embryo retina. In kind it is cell-based. The conditions noted are these: Gallus gallus, 0.5 h, 15-day old chick embryo retina, 30 min at 37° C., criterion: complete prevention of toxicity in all specimens, read-out: concentration providing total protection against toxicity of NMA. Here is the method: (§1) A 15-day old chick embryo retina, incubated for 30 min. in a balanced salt solution (BSS) containing 1 mM Glu, developed a full lesion resembling that described in the immature mouse retina following s.c. administration of Glu. Other excitotoxin agonists also produce acute lesions within 30 min., each agent being effective at a concentration proportional to its known excitatory and toxic potencies. The pattern of cellular degeneration is restricted in each case to the ganglion cell, inner plexiform and inner nuclear layers, but within these areas certain agonists induce different patterns of degeneration, the differences being most pronounced between NMA and KA. Two agonists were employed in the present test, each at a concentration established previously to be the lowest concentration required to consistently cause a fully-developed retinal lesion: KA (25 μM) and NMA (200 μM). Mecamylamine was tested at various concentrations for its ability to prevent KA or NMA neurotoxicity. Although partial blocking was sometimes observed for antagonist concentrations below the threshold for complete protection, the criterion used for comparing agents for antagonist potency was the concentration required to completely prevent KA or NMA from exerting any toxic activity in any specimen (n>6) studied at that concentration. […]

In assay [2] the target is PCP receptor (binding of the PCP ligand 3H-TCP). As to the kind of experiment: Receptor Binding Assay: inhibition of 3H-TCP binding in frozen brain sections. The conditions noted are these: frozen brain sections (10 microns), 20 nM 3H-TCP, 45 min at 4° C., Scatchard/Rosenthal analysis. Here is the method:
Prevention of the neurodegenerative consequences associated with conditions of hypoxia or ischemia may be accomplished with administration of a compound of Formula I. In particular, the compound 3-methylamino-2,2,3-trimethylbicyclo[2.2.1]heptane (mecamylamine) was evaluated in biological assays designed to detect compounds capable of inhibiting hypoxia/ischemia-induced neuronal degeneration. Mecamylamine was evaluated for its ability to inhibit the binding of the PCP ligand tritiated 1-[1-(2-thienyl)cyclohexyl]piperidine [^3 H-TCP].
For receptor binding, frozen brain sections (10 microns) were incubated in […] tris acetate (pH 7.25) containing 0.5 mM magnesium acetate and 20 nM ^3 H-TCP for 45 min. at 4° C. Non-specific binding was assessed with 200 μM PCP. Inhibition of ^3 H-TCP binding was studied by including potential inhibitors in the ^3 H-TCP incubation at concentrations from 10 nM to 1 mM. Dissociation and inhibition constants were calculated by Scatchard/Rosenthal analysis of data obtained by liquid scintillation counting of whole sections.

For assay [3], the system named is KA (25 μM) neurotoxicity in chick embryo retina. As to the kind of experiment: NMDA/KA Antagonist Assay: prevention of KA neurotoxicity in chick embryo retina. The conditions noted are these: 15-day old chick embryo retina, 30 min at 37° C., tested at various concentrations. In kind it is cell-based. Here is the method:
as §1

Usually pKi stands for −log10 of the Ki, conventionally taken in molar units. A high value points to a low Ki. Turning to `CNC1(C)C2CCC(C2)C1(C)C` (stereo not drawn) [mecamylamine, 3-(methylamino)-2,2,3-trimethylbicyclo[2.2.1]heptane], the EC100 in assay [1] amounted to 100 µM. In assay [2], this molecule gave a negative-log Ki (pKi) of 3.91. Further, in assay [3], the “blocking of KA toxicity” value is listed as “not observed”.
